According to US12018011B2, “Macrocyclic compounds and compositions, and methods of preparing and using the same” (Kura Oncology, Inc., priority 2021, dated 2024):
Like-named read-outs stand apart in the source and are kept apart here.

Columns and labels:
[1] = ether bond, 13-membered ring, SOCl2, then Cs2CO3, 2 steps
[2] = ether bond
[3] = biological target: T1, Recombinant human farnesyl transferase (FTase) (Homo sapiens, UniProt P49356); experiment: FTase fluorescence assay (farnesylation of dansyl-GCVLS peptide); assay type: biochemical; details: recombinant human FTase 2.5 nM, Dansyl-GCVLS 85 nM, FPP 30 nM, 30° C., 50 minutes
T1 construct: purchased Crelux (Martinsried, Germany)

[4] = ether bond, 13-membered ring, DMF

Molecule “4^4-bromo-2^2-methoxy-3-(1-methyl-1H-imidazol-5-yl)-6-oxa-2(4,6)-quinolina-1,4(1,3)-dibenzenacyclohexaphan-3-ol” has a ring closure, crude yield ([1]; DMF, 122.7 mM, 70.0 °C) of 84.8%.
For `COc1cc2c3cc(ccc3n1)C(O)(c1cncn1C)c1cnc(Cl)c(c1)COc1cccc-2c1` (centres unmarked) [Compound 59, 4^6-chloro-2^2-methoxy-3-(1-methyl-1H-imidazol-5-yl)-6-oxa-2(4,6)-quinolina-4(3,5)-pyridina-1(1,3)-benzenacyclohexaphan-3-ol], the ring closure, yield of all isomers ([2]; from COc1cc(-c2cccc(O)c2)c2cc(C(O)(c3cnc(Cl)c(CO)c3)c3cncn3C)ccc2n1, SOCl2 then Cs2CO3, DMF, 64.5 mM, 70.0 °C, 1.0 h, 2 steps) was 95.6% and the IC50 [3] was greater than 100 nM.
With `COc1cc2c3cc(ccc3n1)C(O)(c1cncn1C)c1ccc(Cl)c(c1)COc1cccc-2c1` (centres unmarked) [Compound 43, 4^4-chloro-2^2-methoxy-3-(1-methyl-1H-imidazol-5-yl)-6-oxa-2(4,6)-quinolina-1,4(1,3)-dibenzenacyclohexaphan-3-ol] the ring closure, yield of all isomers ([2]; from COc1cc(-c2cccc(O)c2)c2cc(C(O)(c3ccc(Cl)c(CO)c3)c3cncn3C)ccc2n1, Cs2CO3, THF, 9.5 mM, 105.0 °C, 10.0 h, 2 steps) was 82.9% and the IC50 [3] was 10 to 100 nM.
Molecule `COc1cc2c3cc(ccc3n1)C(O)(c1nncn1C)c1ccc(Cl)c(c1)COc1cccc-2c1` (centres unmarked) [Compound 49, 4^4-chloro-2^2-methoxy-3-(4-methyl-4H-1,2,4-triazol-3-yl)-6-oxa-2(4,6)-quinolina-1,4(1,3)-dibenzenacyclohexaphan-3-ol] has a ring closure, yield of all isomers ([2]; from COc1cc(-c2cccc(O)c2)c2cc(C(O)(c3ccc(Cl)c(CCl)c3)c3nncn3C)ccc2n1, K2CO3, DMF, 29.8 mM, 55.0 °C, 12.0 h) of 19% and an IC50 [3] greater than 100 nM.
With “4^4-chloro-2^2-methoxy-3-(4-methyl-4H-1,2,4-triazol-3-yl)-6-oxa-2(4,6)-quinolina-1,4(1,3)-dibenzenacyclohexaphan-3-ol” the ring closure, isolated yield ([4]; K2CO3, 29.8 mM, 55.0 °C) was 69.1%.
In the case of “4^4-chloro-2^2-methoxy-3-(1-methyl-1H-imidazol-5-yl)-6-oxa-2(4,6)-quinolina-1,4(1,3)-dibenzenacyclohexaphan-3-ol”, the ring closure, crude yield ([1]; DMF/THF 1:3, 9.96 mM, 105.0 °C) is reported as 90.7%.
Work on `COc1cc2c3cc(ccc3n1)C(O)(c1cncn1C)c1ccc(Br)c(c1)COc1cccc-2c1` (centres unmarked) [Compound 52, 4^4-bromo-2^2-methoxy-3-(1-methyl-1H-imidazol-5-yl)-6-oxa-2(4,6)-quinolina-1,4(1,3)-dibenzenacyclohexaphan-3-ol] yielded a ring closure, yield of all isomers ([2]; from COc1cc(-c2cccc(O)c2)c2cc(C(O)(c3ccc(Br)c(CO)c3)c3cncn3C)ccc2n1, Cs2CO3, DMF, 122.7 mM, 70.0 °C, 0.5 h, 2 steps) of 84.8% and an IC50 [3] of 10 to 100 nM.
For “4^4-bromo-2^2-chloro-3-(1-methyl-1H-imidazol-5-yl)-6-oxa-2(4,6)-quinolina-1,4(1,3)-dibenzenacyclohexaphan-3-ol”, the ring closure, crude yield ([1]; DMF, 116.2 mM, 70.0 °C) was 84%.
Work on “4^6-chloro-2^2-methoxy-3-(1-methyl-1H-imidazol-5-yl)-6-oxa-2(4,6)-quinolina-4(3,5)-pyridina-1(1,3)-benzenacyclohexaphan-3-ol” yielded a ring closure, crude yield ([1]; DMF, 64.5 mM, 70.0 °C) of 95.6%.
In the case of “4^4-bromo-3-(1-methyl-1H-imidazol-5-yl)-6-oxa-2(1,7)-isoquinolina-1,4(1,3)-dibenzenacyclohexaphan-3-ol”, the ring closure, isolated yield ([4]; Cs2CO3, 77.0 mM, 50.0 °C) is reported as 60.6%.
